Data reported in patent US11945779B2, “Inhibitors of cancer metastasis through inhibiting migration and invasion of cancer cells” (VSpharmtech, priority 2018, dated 2024).
pIC50: −log10 of the molar value.

Legend:
[1] = Acute toxicity test for oral administration to rats; conditions: rat, in vivo, 1000 mg/kg; SD rats, single oral dose; read-out: Minimum dose (LD50) of oral administration
Experimental: Six-week-old specific pathogen free (SPF) SD-based rats were divided by two per group and then CG-608, CG-609, or CG-618 prepared in Example 1, 2, or 9 was dissolved in distilled water for injection and orally administered to rats once in a dose of 1000 mg/kg.

[2] = tested on: lung cancer cell line HCC-827; assay: Trans-well cancer cell migration inhibition, HCC-827; format: cell-based; conditions: Homo sapiens, HCC827; Lung cancer cell HCC-827; read-out: Concentration inhibiting migration of cancer cells by 50% (IC50 value)
Experimental: (§1) In order to analyze cancer cell migration inhibitory activity of CG-608, CG-609 or CG-618 prepared in Examples 1, 2, or 9, cell migration inhibitory activity was measured using a trans-well by targeting a colon cancer cell line DLD-1 (ATCC-CCL-221), pancreatic cancer cell lines AsPc-1 (ATCC-CCL-1682). CFPAC-1 (ATCC-CCL-1918). Panc-1 (ATCC-CCL-1469), and Miapaca-2 (ATCC-CCL-1420), a skin cancer cell line A375-P (ATCC-CCL-3224), lung cancer cell lines HCC-827 (ATCC-CCL-2868), A549 (ATCC-CCL-185), and NCI-H460 (ATCC-CCL-177), a prostate cancer cell line DU145 (ATCC-HTB-81), a stomach cancer cell line NuGC-3 (JCRB0822), and an ovarian cancer cell line SKOV-3 (ATCC-HTB-77).
(§2) First, the number of DLD-1 cells was measured using a hemocytometer in an RPMI medium without FBS. Thereafter, the trans-well was placed on a 24-well plate and 8×10^4 […] of cells were added. In an empty space with the trans-well on the well plate, […] of an RPM medium having 10% FBS containing CG-608, CG-609, or CG-618 was added and cultured in a CO2 incubator at 37° C. for 16 hours. After culture, […] of crystal violet (5 mg/mL of 20% […] was added to each well of the 24-well plate and the trans-well was dyed at room temperature for 30 minutes. The dyed trans-well was washed with PBS and non-migrated cells were wiped off with cotton swabs. The prepared sample was photographed with an inverted microscope mounted with a digital camera (TE 300, Nikon. Japan) and then the number of migrated cells was counted. The degree of inhibiting cell migration was calculated by Equation 1 for a group treated with the sample compared to a control group (DMSO).
(§3) In Equation 1, ‘the number of migrated cells treated with sample’ refers to the number of migrated cells measured by treating CG-608 or CG-618 of Example 1, and ‘the number of migrated cells of a control sample’ refers to the number of migrated cells measured by treating only 1% dimethyl sulfoxide (DMSO) instead of the compound.

[3] = tested on: colon cancer cell line DLD-1; assay: Trans-well cancer cell migration inhibition, DLD-1; format: cell-based, human; conditions: Homo sapiens; Colon cancer cell DLD-1, trans-well, 16 hours; read-out: Concentration inhibiting migration of cancer cells by 50% (IC50 value)
Experimental: as §1, §2, §3

[4] = tested on: pancreatic cancer cell line AsPc-1; assay: Trans-well cancer cell migration inhibition, AsPc-1; format: cell-based; conditions: Homo sapiens, ASPC1; Pancreatic cancer cell line AsPc-1; read-out: Concentration inhibiting migration of cancer cells by 50% (IC50 value)
Experimental: as §1, §2, §3

[5] = tested on: stomach cancer cell line NuGC-3; assay: Trans-well cancer cell migration inhibition, NuGC-3; format: cell-based; conditions: Homo sapiens; Gastric cancer cell NuGC-3; read-out: Concentration inhibiting migration of cancer cells by 50% (IC50 value)
Experimental: as §1, §2, §3

[6] = tested on: skin cancer cell line A375-P; assay: Trans-well cancer cell migration inhibition, A375-P; format: cell-based; conditions: Homo sapiens, A375P; Skin cancer cell A375-P; read-out: Concentration inhibiting migration of cancer cells by 50% (IC50 value)
Experimental: as §1, §2, §3

[7] = tested on: prostate cancer cell line DU145; assay: Trans-well cancer cell migration inhibition, DU145; format: cell-based; conditions: Homo sapiens, DU-145; Prostate cancer cell DU145; read-out: Concentration inhibiting migration of cancer cells by 50% (IC50 value)
Experimental: as §1, §2, §3

colon cancer cells DLD-1 = assay: Cancer cell invasion inhibition (Matrigel trans-well), DLD-1; format: cell-based; conditions: Homo sapiens, DLD-1; 5 μM
Experimental: In order to analyze cancer cell invasion inhibitory activity of CG-609 or CG-618 prepared in Example 1 or 9, cell invasion inhibitory activity using a trans-well was measured by targeting colon cancer cell line DLD-1 cells or pancreatic cancer cell line AsPc-1 cells.
Matrigel was diluted by 1/5 using an RPMI medium without FBS and then […] was put into each trans-well. The cells were coated in a […] for 2 hours. The number of DLD-1 cells was measured using a hemocytometer in an RPMI medium without FBS. Thereafter, the coated trans-well was placed on a 24-well plate and 8×10^4 […] of cells were added. In an empty space of the trans-well on the well plate, […] of an RPMI medium having 10% FBS containing (S)-(−)-benproperine was added and cultured in a CO2 incubator at 37° C. for 16 hours. After culture, […] of crystal violet (5 mg/mL of 20% MeOH) was added to each well of the 24-well plate and the trans-well was dyed at room temperature for 30 minutes. The dyed trans-well was washed with PBS and non-migrated cells were wiped off with cotton swabs. The prepared sample was photographed with an inverted microscope mounted with a digital camera (TE 300, Nikon, Japan), and then the number of migrated cells was counted. The degree of inhibiting cell migration was calculated for a group treated with the sample compared to a control group (DMSO).

Structure (SMILES)	LD50 [1] [mg/kg]	pIC50 [2]	pIC50 [3]	pIC50 [4]	pIC50 [5]	pIC50 [6]	pIC50 [7]	inhibition at 5 µM (colon cancer cells DLD-1) [%]
CC1CCCCN1[C@@H](C)COc1ccccc1Cc1ccccc1 (stereo partly drawn) [CG-608, 1-((S)-1-(2-benzylphenoxy)propan-2-yl)-2-methylpiperidine]	≥ 1000	5.82	6.70	6.60	5.70	5.82	5.30	–
CC(COc1ccccc1Cc1ccccc1)N1CCCCC1 (centres unmarked) [benproperine, reference compound]	–	4.70	5.70	5.52	> 4.70	5.15	4.70	50
